Experimental data as given in patent US20230416232A1, “PYRIMIDINE COMPOUNDS, COMPOSITIONS, AND MEDICINAL APPLICATIONS THEREOF” (Blueprint Medicines Corporation, priority 2020, published 2023).
Structures can show the parent of a compound that is named as a salt.

Legend:
Type in all cases: cell-based
[1] = target: EGFR(D770_N771insSVD) expressing Ba/F3 stable cell line (Homo sapiens, UniProt P00533, DUP768-770, cells depend on it); test: Cellular proliferation (Alamar Blue) assay, EGFR(D770_N771insSVD) Ba/F3; conditions: 72 hr, read-out: D770 IC50
In short: (§1)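 Seed A431 at 5000 and Ba/F3 at 15,000 cells/well in 10% FBS medium and incubate 16-18 h at 37 °C, 5% CO2. Add compound (final 10-0.0005 μM, 3-fold steps) or DMSO for 72 h. Add Alamar Blue and read after 3 h.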

[2] = target: EGFR (A767_dupASV) expressing Ba/F3 stable cell line (Homo sapiens, UniProt P00533, DUP767-769, cells depend on it); test: Cellular proliferation (Alamar Blue) assay, EGFR (A767_dupASV) Ba/F3; conditions: 72 hr, read-out: A767 IC50
In short: as §1

A431 cells = test: Cellular proliferation (Alamar Blue) assay, A431 cells; conditions: Homo sapiens, A-431, 72 h, A431 cells; 72 hr; Alamar Blue; read-out: A431 IC50
In short: as §1

[3] = target: EGFR (H773insNPH) expressing Ba/F3 stable cell line (Homo sapiens, UniProt P00533, DUP771-773, cells depend on it); test: Cellular proliferation (Alamar Blue) assay, EGFR (H773insNPH) Ba/F3; conditions: 72 hr, read-out: NPH IC50
Method: Cell line details: • 1. EGFR(D770_N771insSVD) expressing Ba/F3 stable cell line • 2. EGFR (A767_dupASV) expressing Ba/F3 stable cell line • 3. A431 cells • 4. EGFR (H773insNPH) expressing Ba/F3 stable cell line • 5. HER2 (A775_G776insYVMA) expressing Ba/F3 stable cell line
• 1. Seed cells at 5000 for A431 and 15,000 cells for Ba/F3 in 100 μL/well in complete media (for A431: DMEM with 10% FBS and for Ba/F3 cells: RPMI with 10% FBS) in 96-well tissue culture plate. Leave outer wells without cells for background measurements. Incubate at 37 degree Celsius in 5% CO2 humidified incubator for 16-18 hours. • 2. Add 0.025 ml of 5X concentration compound dilution or DMSO control. Final compound concentration range is 10-0.0005 μM prepared in 3-fold serial dilutions. Incubate for 72 hr at 37 degree Celsius in 5% CO2 humidified incubator. • 3. Add 0.0125 ml Alamar Blue™ reagent to each well with multi-channel pipette and tap gently on each side of the plate to mix. Incubate for 3 hours at 37 degree Celsius in 5% CO2 humidified incubator. • 4. […] Data analysis was performed using XLfit 5.5.0.5.

[4] = target: HER2 (A775_G776insYVMA) expressing Ba/F3 stable cell line (Homo sapiens, UniProt P04626, DUP772-775, cells depend on it); test: Cellular proliferation (Alamar Blue) assay, HER2 (A775_G776insYVMA) Ba/F3; conditions: HER2 (A775_G776insYVMA) Ba/F3 cells; 72 hr; Alamar Blue; read-out: YVMA IC50
In short: as §1

Sequence of EGFR(D770_N771insSVD) expressing Ba/F3 stable cell line (P00533 with tags, fused parts or gaps DUP768-770): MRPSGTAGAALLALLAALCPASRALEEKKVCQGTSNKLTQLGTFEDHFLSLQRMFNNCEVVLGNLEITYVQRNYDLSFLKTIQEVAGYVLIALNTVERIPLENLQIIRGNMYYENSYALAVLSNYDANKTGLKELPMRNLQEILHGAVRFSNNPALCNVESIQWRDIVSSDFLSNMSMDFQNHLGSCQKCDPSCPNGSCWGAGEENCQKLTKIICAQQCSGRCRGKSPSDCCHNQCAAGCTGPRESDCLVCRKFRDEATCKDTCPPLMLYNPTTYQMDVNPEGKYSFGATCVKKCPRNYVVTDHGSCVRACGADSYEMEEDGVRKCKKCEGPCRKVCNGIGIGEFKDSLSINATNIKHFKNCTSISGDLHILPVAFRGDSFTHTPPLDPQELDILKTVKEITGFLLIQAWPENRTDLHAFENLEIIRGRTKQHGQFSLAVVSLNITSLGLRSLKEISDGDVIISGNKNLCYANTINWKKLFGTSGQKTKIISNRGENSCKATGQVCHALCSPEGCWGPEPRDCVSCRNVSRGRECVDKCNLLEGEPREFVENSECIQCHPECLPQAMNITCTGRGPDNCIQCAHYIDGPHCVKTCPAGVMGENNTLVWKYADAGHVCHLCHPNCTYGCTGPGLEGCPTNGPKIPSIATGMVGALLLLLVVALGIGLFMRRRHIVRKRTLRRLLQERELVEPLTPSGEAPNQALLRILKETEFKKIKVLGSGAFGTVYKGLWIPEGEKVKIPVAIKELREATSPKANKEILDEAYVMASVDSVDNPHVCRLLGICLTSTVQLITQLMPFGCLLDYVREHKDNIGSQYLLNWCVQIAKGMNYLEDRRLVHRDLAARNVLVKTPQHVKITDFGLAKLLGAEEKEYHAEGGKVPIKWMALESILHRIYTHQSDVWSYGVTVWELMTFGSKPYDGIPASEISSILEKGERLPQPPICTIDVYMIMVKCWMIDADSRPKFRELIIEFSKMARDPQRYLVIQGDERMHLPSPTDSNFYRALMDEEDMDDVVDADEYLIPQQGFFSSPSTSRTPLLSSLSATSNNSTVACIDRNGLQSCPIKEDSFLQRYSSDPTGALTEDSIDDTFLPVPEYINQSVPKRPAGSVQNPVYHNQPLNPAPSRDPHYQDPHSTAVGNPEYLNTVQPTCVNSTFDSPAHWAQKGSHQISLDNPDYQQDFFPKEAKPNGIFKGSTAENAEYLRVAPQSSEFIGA
Sequence of EGFR (H773insNPH) expressing Ba/F3 stable cell line (P00533 with tags, fused parts or gaps DUP771-773): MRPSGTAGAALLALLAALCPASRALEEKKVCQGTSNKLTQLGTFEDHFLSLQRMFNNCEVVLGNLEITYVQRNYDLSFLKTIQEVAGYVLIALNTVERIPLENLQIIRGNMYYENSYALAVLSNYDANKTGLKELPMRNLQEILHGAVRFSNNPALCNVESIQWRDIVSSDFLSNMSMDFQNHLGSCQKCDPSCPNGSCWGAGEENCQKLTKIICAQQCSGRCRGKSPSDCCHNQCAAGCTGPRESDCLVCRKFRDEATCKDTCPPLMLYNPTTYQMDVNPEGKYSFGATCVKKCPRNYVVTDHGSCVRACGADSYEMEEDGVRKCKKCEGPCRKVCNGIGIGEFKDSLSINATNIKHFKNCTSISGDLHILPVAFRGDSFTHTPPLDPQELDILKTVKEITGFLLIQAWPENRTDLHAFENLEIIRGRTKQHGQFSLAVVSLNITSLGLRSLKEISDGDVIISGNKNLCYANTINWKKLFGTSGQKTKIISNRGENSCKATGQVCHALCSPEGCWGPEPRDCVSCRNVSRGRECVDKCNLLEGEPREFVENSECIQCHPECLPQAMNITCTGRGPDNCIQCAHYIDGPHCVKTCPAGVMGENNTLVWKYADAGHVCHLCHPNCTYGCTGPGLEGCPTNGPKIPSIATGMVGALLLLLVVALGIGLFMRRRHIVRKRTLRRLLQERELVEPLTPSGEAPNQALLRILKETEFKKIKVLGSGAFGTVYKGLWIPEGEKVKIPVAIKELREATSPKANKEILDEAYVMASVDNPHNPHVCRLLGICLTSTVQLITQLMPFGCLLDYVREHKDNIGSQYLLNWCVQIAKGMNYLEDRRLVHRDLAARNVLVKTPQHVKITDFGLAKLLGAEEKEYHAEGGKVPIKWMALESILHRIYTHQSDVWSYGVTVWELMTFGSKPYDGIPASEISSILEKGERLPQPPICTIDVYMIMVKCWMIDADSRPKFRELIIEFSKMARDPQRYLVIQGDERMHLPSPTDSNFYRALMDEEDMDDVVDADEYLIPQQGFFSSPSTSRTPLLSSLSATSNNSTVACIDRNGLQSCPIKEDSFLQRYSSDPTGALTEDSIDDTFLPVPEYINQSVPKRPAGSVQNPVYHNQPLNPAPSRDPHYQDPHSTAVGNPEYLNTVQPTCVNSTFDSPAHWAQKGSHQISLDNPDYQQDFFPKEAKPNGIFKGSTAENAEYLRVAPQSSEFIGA
Sequence of HER2 (A775_G776insYVMA) expressing Ba/F3 stable cell line (P04626 with tags, fused parts or gaps DUP772-775): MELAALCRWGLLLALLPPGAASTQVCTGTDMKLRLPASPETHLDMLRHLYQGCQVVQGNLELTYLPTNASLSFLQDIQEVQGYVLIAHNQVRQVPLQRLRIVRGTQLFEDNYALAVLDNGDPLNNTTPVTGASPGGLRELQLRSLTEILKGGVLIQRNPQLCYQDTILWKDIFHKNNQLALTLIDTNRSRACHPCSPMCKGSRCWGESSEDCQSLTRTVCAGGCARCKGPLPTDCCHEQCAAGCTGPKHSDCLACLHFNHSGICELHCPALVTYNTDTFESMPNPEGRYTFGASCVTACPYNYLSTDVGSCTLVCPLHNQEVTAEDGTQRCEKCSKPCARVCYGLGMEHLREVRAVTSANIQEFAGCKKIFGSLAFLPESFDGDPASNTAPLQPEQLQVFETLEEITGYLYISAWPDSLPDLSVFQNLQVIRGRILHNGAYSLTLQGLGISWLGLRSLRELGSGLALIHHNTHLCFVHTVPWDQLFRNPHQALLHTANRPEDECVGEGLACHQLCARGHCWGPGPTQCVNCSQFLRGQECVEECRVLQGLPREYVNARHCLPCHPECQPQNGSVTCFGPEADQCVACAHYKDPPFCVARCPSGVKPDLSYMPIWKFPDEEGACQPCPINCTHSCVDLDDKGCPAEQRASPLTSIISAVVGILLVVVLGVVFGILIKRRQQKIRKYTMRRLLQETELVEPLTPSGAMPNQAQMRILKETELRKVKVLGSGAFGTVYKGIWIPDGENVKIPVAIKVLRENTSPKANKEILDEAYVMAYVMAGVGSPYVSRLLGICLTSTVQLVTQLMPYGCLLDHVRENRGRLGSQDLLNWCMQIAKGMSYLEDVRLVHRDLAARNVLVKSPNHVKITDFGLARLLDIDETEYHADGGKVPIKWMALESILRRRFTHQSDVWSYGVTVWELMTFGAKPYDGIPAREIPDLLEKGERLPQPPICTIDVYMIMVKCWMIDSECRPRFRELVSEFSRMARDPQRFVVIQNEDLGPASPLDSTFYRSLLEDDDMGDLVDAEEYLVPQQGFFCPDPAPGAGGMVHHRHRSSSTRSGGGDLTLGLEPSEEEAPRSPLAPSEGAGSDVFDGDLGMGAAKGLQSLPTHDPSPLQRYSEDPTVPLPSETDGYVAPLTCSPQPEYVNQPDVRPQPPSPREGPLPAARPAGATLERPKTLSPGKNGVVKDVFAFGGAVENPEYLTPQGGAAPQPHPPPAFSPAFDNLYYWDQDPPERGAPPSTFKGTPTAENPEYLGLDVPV
Sequence of EGFR (A767_dupASV) expressing Ba/F3 stable cell line (P00533 with tags, fused parts or gaps DUP767-769): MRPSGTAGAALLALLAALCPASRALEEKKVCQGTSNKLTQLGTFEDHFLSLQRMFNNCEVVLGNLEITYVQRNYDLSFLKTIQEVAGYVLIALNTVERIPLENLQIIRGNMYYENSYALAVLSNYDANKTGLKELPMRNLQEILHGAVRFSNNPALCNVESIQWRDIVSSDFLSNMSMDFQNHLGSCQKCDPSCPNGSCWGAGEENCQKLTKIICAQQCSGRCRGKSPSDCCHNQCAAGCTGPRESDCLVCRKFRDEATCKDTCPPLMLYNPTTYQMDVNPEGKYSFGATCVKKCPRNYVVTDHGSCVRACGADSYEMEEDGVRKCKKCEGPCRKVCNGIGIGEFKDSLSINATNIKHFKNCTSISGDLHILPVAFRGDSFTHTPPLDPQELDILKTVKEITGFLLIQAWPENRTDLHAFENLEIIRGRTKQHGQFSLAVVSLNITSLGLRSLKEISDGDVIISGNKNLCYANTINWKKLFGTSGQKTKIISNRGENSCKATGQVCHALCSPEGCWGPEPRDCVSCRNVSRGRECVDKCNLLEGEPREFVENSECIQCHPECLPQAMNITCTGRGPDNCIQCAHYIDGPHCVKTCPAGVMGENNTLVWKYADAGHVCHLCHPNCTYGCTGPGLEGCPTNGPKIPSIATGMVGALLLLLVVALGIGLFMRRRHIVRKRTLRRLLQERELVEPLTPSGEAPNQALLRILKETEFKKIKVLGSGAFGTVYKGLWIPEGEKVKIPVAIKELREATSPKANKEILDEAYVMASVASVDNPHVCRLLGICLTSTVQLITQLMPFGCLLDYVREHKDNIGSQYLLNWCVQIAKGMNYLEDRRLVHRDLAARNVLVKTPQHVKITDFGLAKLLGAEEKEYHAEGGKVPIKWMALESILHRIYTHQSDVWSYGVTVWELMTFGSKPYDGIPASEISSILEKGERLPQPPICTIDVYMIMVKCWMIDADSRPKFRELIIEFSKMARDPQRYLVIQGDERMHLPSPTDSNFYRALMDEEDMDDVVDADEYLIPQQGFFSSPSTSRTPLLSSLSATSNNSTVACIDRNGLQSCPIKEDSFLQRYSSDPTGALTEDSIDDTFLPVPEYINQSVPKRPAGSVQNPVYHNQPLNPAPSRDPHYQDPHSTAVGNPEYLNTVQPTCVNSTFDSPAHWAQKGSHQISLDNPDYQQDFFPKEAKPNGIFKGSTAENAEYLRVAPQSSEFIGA

SMILES	GI50 [1] [nM]	GI50 [2] [nM]	IC50 (A431 cells) [nM]	GI50 [3] [nM]	GI50 [4] [nM]
C=CC(=O)Nc1ccc(F)c(Nc2nc(Nc3cnn(C)c3)ncc2-c2cc(F)cc(F)c2)c1 [Compound 26, N-(3-((5-(3,5-difluorophenyl)-2-((1-methyl-1H-pyrazol-4-yl)amino)pyrimidin-4-yl)amino)-4-fluorophenyl)acrylamide]	27	35	443	31	112
C=CC(=O)Nc1ccc(F)c(Nc2nc(Nc3cnn(C)c3)ncc2-c2ccc(F)c(Br)c2)c1 [Compound 18, N-(3-((5-(3-bromo-4-fluorophenyl)-2-((1-methyl-1H-pyrazol-4-yl)amino)pyrimidin-4-yl)amino)-4-fluorophenyl)acrylamide trifluoroacetate]	113	166	251	56	220
C=CC(=O)Nc1ccc(F)c(Oc2nc(Nc3cnn(C)c3)ncc2-c2ccc(Cl)c(F)c2)c1 [Compound 98, N-(3-{[5-(4-chloro-3-fluorophenyl)-2-[(1-methyl-1H-pyrazol-4-yl)amino]pyrimidin-4-yl]oxy}-4-fluorophenyl) prop-2-enamide]	36	104	990	153	252
C=CC(=O)Nc1ccc(F)c(Nc2nc(Nc3cnn(CCO)c3)ncc2-c2ccc(Br)c(F)c2)c1 [Compound 96, N-(3-((5-(4-bromo-3-fluorophenyl)-2-((1-(2-hydroxyethyl)-1H-pyrazol-4-yl)amino)pyrimidin-4-yl)amino)-4-fluorophenyl)acrylamide]	25	28	37	96	56
C=CC(=O)Nc1ccc(F)c(Nc2nc(Nc3cnn(C)c3)ncc2-c2ccc(Cl)c(Br)c2)c1 [Compound 90, N-(3-((5-(3-bromo-4-chlorophenyl)-2-((1-methyl-1H-pyrazol-4-yl)amino)pyrimidin-4-yl)amino)-4-fluorophenyl)acrylamide]	100	122	185	156	164
C=CC(=O)Nc1ccc(F)c(Nc2nc(Nc3cnn(C)c3)ncc2-c2cnc(C)c(Cl)c2)c1 [Compound 46, N-(3-((5-(5-chloro-6-methylpyridin-3-yl)-2-((1-methyl-1H-pyrazol-4-yl)amino)pyrimidin-4-yl)amino)-4-fluorophenyl)acrylamide]	17	29	102	30	34
C=CC(=O)Nc1ccc(F)c(Nc2nc(Nc3cnn(C)c3)ncc2-c2ccc(Br)c(Cl)c2)c1 [Compound 88, N-(3-((5-(4-bromo-3-chlorophenyl)-2-((1-methyl-1H-pyrazol-4-yl)amino)pyrimidin-4-yl)amino)-4-fluorophenyl)acrylamide]	66	87	280	57	118
C=CC(=O)Nc1ccc(F)c(Nc2nc(Nc3cnn(C)c3)ncc2-c2ccc(Br)c(F)c2)c1 [Compound 87, N-(3-{[5-(4-bromo-3-fluorophenyl)-2-[(1-methyl-1H-pyrazol-4-yl)amino]pyrimidin-4-yl]amino}-4-fluorophenyl) prop-2-enamide]			18	116	83
C=CC(=O)Nc1ccc(F)c(Nc2nc(Nc3cnn(C)c3)ncc2-c2ccc(F)c(C(F)(F)F)c2)c1 [Compound 25, N-(4-fluoro-3-((5-(4-fluoro-3-(trifluoromethyl)phenyl)-2-((1-methyl-1H-pyrazol-4-yl)amino)pyrimidin-4-yl)amino)phenyl)acrylamide]	102	87	49	91	341
C=CC(=O)Nc1cccc(Nc2nc(Nc3cnn(C)c3)ncc2-c2ccc(Cl)c(F)c2)c1 [Compound 68, N-(3-((5-(4-chloro-3-fluorophenyl)-2-((1-methyl-1H-pyrazol-4-yl)amino)pyrimidin-4-yl)amino)phenyl)acrylamide]	14	23	60	21	
C=CC(=O)Nc1ccc(F)c(Nc2nc(Nc3cnn(C)c3)ncc2-c2ccc(C(F)(F)F)c(Cl)c2)c1 [Compound 54, N-(3-((5-(3-chloro-4-(trifluoromethyl)phenyl)-2-((1-methyl-1H-pyrazol-4-yl)amino)pyrimidin-4-yl)amino)-4-fluorophenyl)acrylamide]	85	184		186	260
C=CC(=O)Nc1cccc(Nc2nc(Nc3cnn(C)c3)ncc2-c2ccc(N(C)C)c(F)c2)c1 [Compound 30, N-(3-((5-(4-(dimethylamino)-3-fluorophenyl)-2-((1-methyl-1H-pyrazol-4-yl)amino)pyrimidin-4-yl)amino)phenyl)acrylamide]	35		299	40	91
C=CC(=O)Nc1ccc(F)c(Nc2nc(Nc3cnn(C)c3)ncc2-c2ccc(OC(F)(F)F)c(F)c2)c1 [Compound 14, N-(4-fluoro-3-((5-(3-fluoro-4-(trifluoromethoxy)phenyl)-2-((1-methyl-1H-pyrazol-4-yl)amino)pyrimidin-4-yl)amino)phenyl)acrylamide]		26	140	59	107
C=CC(=O)Nc1ccc(F)c(Nc2nc(Nc3cnn(CCO)c3)ncc2-c2ccc(Cl)c(Cl)c2)c1 [Compound 51, N-(3-((5-(3,4-dichlorophenyl)-2-((1-(2-hydroxyethyl)-1H-pyrazol-4-yl)amino)pyrimidin-4-yl)amino)-4-fluorophenyl)acrylamide]	38	56	110	79	
C=CC(=O)Nc1ccc(F)c(Nc2nc(Nc3cnn(C4COC4)c3)ncc2-c2ccc(Br)c(F)c2)c1 [Compound 94, N-(3-((5-(4-bromo-3-fluorophenyl)-2-((1-(oxetan-3-yl)-1H-pyrazol-4-yl)amino)pyrimidin-4-yl)amino)-4-fluorophenyl)acrylamide]		40	31	35	144
C=CC(=O)Nc1ccc(F)c(Nc2nc(Nc3cnn(C)c3)ncc2-c2ccc(N3CCCOCC3)c(F)c2)c1 [Compound 84, N-(4-fluoro-3-((5-(3-fluoro-4-(1,4-oxazepan-4-yl)phenyl)-2-((1-methyl-1H-pyrazol-4-yl)amino)pyrimidin-4-yl)amino)phenyl)acrylamide]	122	101	522	92	
C=CC(=O)Nc1ccc(F)c(Nc2nc(Nc3cnn(C)c3)ncc2-c2cc(F)cc(Cl)c2)c1 [Compound 34, N-(3-((5-(3-chloro-5-fluorophenyl)-2-((1-methyl-1H-pyrazol-4-yl)amino)pyrimidin-4-yl)amino)-4-fluorophenyl)acrylamide]		39	303	50	84
C=CC(=O)Nc1ccc(F)c(Nc2nc(Nc3cnn(C)c3)ncc2-c2cnc(Cl)c(C)c2)c1 [Compound 48, N-(3-((5-(6-chloro-5-methylpyridin-3-yl)-2-((1-methyl-1H-pyrazol-4-yl)amino)pyrimidin-4-yl)amino)-4-fluorophenyl)acrylamide]			68	31	36
C=CC(=O)Nc1ccc(F)c(Nc2nc(Nc3cnn(C)c3)ncc2-c2ccc(C3=CCN(C)CC3)c(F)c2)c1 [Compound 55, N-(4-fluoro-3-((5-(3-fluoro-4-(1-methyl-1,2,3,6-tetrahydropyridin-4-yl)phenyl)-2-((1-methyl-1H-pyrazol-4-yl)amino)pyrimidin-4-yl)amino)phenyl)acrylamide]	2240	800	2230	3640	
C=CC(=O)Nc1cccc(Nc2nc(Nc3cnn(C)c3)ncc2-c2ccc(OC)c(F)c2)c1 [Compound 69, N-(3-((5-(3-fluoro-4-methoxyphenyl)-2-((1-methyl-1H-pyrazol-4-yl)amino)pyrimidin-4-yl)amino)phenyl)acrylamide]		14	73	21	27
